Results taken from patent US9315491B2 (DEVELOPMENT CENTER FOR BIOTECHNOLOGY, priority 2009, dated 2016).

Each molecule was assayed against recombinant mTOR (Homo sapiens (Human), UniProt P42345) (assay: mTOR kinase assay (33P incorporation into 4EBP1)). Details: compound at 10 μM, 10 μM ATP.
Type: biochemical
Method: The activity of the compound against mTOR was examined by measuring the incorporation of ^33P from [γ-^33P]-ATP into 4EBP1. His-tagged, recombinant human 4EBP1 was expressed in E. coli, purified by nickel-nitrilotriacetic acid (Ni-NTA) resins, and stored at −80° C. Phosphorylation of 4EBP1 by mTOR was assayed in the presence or absence of the compound and performed in a final volume of 25 μl reaction buffer containing 300 ng 4EBP1, 50 ng recombinant mTOR (Invitrogen), 50 mM HEPES (pH 7.5), 1 mM EGTA, 0.01% Polysorbate 20, 10 mM MnCl2, 2.5 mM DTT, 10 μM ATP, and 0.5 μCi [γ-33P]-ATP (PerkinElmir) for 30 min at 30° C. The reactions were terminated by adding 3% phosphoric acid. The ^33P labeled 4EBP1 was transferred onto UniFilter-96 GF/B plate (PerkinElmer) and quantified by Top Count Microplate Scintillation Counter (PerkinElmer). For primary screening of kinase activity inhibition, each test compound was evaluated at […] in duplicate. […] The IC50 values of the compounds were determined after carrying out assays at eight serially diluted concentrations of each compound in duplicate. The results were analyzed using linear regression software (GraphPad Prism 5; GraphPad Software Inc.).
IC50 value is defined as the concentration of the test compound which achieves a half-maximal inhibition of the kinase activity.

recombinant mTOR, sequence (P42345 1360-2549): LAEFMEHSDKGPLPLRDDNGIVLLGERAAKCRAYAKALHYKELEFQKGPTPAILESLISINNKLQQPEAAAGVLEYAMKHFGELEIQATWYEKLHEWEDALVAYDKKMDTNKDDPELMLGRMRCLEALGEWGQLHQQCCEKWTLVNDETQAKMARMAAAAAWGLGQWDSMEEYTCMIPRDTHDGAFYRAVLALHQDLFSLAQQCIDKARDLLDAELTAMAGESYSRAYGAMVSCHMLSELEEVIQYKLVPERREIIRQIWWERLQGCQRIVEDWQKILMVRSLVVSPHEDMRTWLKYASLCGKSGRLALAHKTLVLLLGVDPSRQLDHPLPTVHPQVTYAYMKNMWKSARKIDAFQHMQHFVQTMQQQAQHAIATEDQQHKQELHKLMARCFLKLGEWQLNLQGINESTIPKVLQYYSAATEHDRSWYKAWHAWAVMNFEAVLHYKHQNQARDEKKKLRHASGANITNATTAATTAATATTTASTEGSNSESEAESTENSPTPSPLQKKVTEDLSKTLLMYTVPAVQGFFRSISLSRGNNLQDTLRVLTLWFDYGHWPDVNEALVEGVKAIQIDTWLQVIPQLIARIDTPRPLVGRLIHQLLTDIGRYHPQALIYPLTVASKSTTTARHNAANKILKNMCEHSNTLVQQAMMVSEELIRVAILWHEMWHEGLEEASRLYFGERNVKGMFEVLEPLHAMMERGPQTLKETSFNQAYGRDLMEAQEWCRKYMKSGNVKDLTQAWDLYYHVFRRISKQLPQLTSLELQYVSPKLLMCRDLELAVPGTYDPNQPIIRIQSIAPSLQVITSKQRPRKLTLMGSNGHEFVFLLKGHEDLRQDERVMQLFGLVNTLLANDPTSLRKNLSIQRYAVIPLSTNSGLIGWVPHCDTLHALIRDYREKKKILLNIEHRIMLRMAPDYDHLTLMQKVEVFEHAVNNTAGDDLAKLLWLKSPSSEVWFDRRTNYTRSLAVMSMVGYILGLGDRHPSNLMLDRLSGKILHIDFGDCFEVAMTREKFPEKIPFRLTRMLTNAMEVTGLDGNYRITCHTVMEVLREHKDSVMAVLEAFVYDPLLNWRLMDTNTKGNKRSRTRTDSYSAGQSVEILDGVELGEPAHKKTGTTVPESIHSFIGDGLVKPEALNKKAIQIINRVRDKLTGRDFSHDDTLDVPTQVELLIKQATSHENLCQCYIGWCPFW

Structure (SMILES)	inhibition at 10 µM [%]	% Inhibition @ 10 μM [%]
COc1cnc(-c2ccc(NC(=O)Nc3ccc(Br)nc3)cc2)nc1N1CCOCC1 [MTR-0352, 1-(6-Bromo-pyridin-3-yl)-3-[4-(5-methoxy-4-morpholin-4-yl-pyrimidin-2-yl)-phenyl]-urea]	94	
CSc1c(Cl)nc(-c2ccc(NC(N)=O)c(F)c2)nc1N1CCOCC1 [MTR-0356, [4-(4-Chloro-5-methylsulfanyl-6-morpholin-4-yl-pyrimidin-2-yl)-2-fluoro-phenyl]-urea]	82	
CSc1c(-c2ccncc2)nc(-c2ccc(N)cc2)nc1N1CCOCC1 [MTR-0360, 4-(5-Methylsulfanyl-4-morpholin-4-yl-6-pyridin-4-yl-pyrimidin-2-yl)-phenylamine]	95	
CCOC(=O)c1nc(-c2ccc(NC(=O)Nc3ccc4c(c3)OCO4)cc2)nc(N2CCOCC2)c1OCC [MTR-0361, 2-[4-(3-Benzo[1,3]dioxol-5-yl-ureido)-phenyl]-5-ethoxy-6-morpholin-4-yl-pyrimidine-4-carboxylic acid ethyl ester]	95	
CCOC(=O)c1ccc(NC(=O)Nc2ccc(-c3nc(C(=O)OCC)c(OCC)c(N4CCOCC4)n3)cc2)cc1 [MTR-0362, 5-Ethoxy-2-{4-[3-(4-ethoxycarbonyl-phenyl)-ureido]-phenyl}-6-morpholin-4-yl-pyrimidine-4-carboxylic acid ethyl ester]	84	
CCOC(=O)c1nc(-c2ccc(NC(=O)Nc3ccc(OCCN(C)C)cc3)cc2)nc(N2CCOCC2)c1OCC [MTR-0363, 2-(4-{3-[4-(2-Dimethylamino-ethoxy)-phenyl]-ureido}-phenyl)-5-ethoxy-6-morpholin-4-yl-pyrimidine-4-carboxylic acid ethyl ester]	93	
CCOC(=O)c1nc(-c2ccc(NC(=O)NC(C)C)cc2)nc(N2CCOCC2)c1OCC [MTR-0366, 5-Ethoxy-2-[4-(3-isopropyl-ureido)-phenyl]-6-morpholin-4-yl-pyrimidine-4-carboxylic acid ethyl ester]	85	
CSc1c(Cl)nc(-c2cnc(N)nc2)nc1N1CCOCC1 [MTR-0373, 6-Chloro-5-methylsulfanyl-4-morpholin-4-yl-[2,5′]bipyrimidinyl-2′-ylamine]	81	
CS(=O)(=O)c1cnc(-c2ccc(NC(=O)Nc3ccc(N4CCOCC4=O)cc3)cc2)nc1N1CCOCC1 [MTR-0381, 1-[4-(5-Methanesulfonyl-4-morpholin-4-yl-pyrimidin-2-yl)-phenyl]-3-[4-(3-oxo-morpholin-4-yl)-phenyl]-urea]	92	
CCOc1cnc(-c2ccc(NC(=O)Nc3ccc(C(N)=O)cc3)cc2)nc1-c1ccncc1 [MTR-0400, 4-{3-[4-(5-Ethoxy-4-pyridin-4-yl-pyrimidin-2-yl)-phenyl]-ureido}-benzamide]	85	
CCOC(=O)c1nc(-c2cnc(NC(=O)Nc3ccc(N4CCOCC4=O)cc3)nc2)nc(N2CCOCC2)c1OCC [MTR-0403, 5-Ethoxy-6-morpholin-4-yl-2′-{3-[4-(3-oxo-morpholin-4-yl)-phenyl]-ureido}-[2,5′]bipyrimidinyl-4-carboxylic acid ethyl ester]	88	
CSc1c(Cl)nc(-c2ccc(NC(=O)Nc3ccc(S(N)(=O)=O)cc3)c(F)c2)nc1N1CCOCC1 [MTR-0410, 4-{3-[4-(4-Chloro-5-methylsulfanyl-6-morpholin-4-yl-pyrimidin-2-yl)-2-fluoro-phenyl]-ureido}-benzenesulfonamide]	85	
CSc1c(Cl)nc(-c2ccc(NC(=O)Nc3ccc(C(N)=O)cc3)cc2F)nc1N1CCOCC1 [MTR-0411, 4-{3-[4-(4-Chloro-5-methylsulfanyl-6-morpholin-4-yl-pyrimidin-2-yl)-3-fluoro-phenyl]-ureido}-benzamide]	93	
CSc1c(Cl)nc(-c2ccc(NC(=O)Nc3ccc(NC(C)=O)nc3)cc2)nc1N1CCOCC1 [MTR-0415, N-(5-{3-[4-(4-Chloro-5-methylsulfanyl-6-morpholin-4-yl-pyrimidin-2-yl)-phenyl]-ureido}-pyridin-2-yl)-acetamide]	81	
CCOC(=O)c1nc(-c2ccc(NC(=O)Nc3ccc(N4CCN(S(C)(=O)=O)CC4)cc3)cc2)nc(N2CCOCC2)c1OCC [MTR-0419, 5-Ethoxy-2-(4-{3-[4-(4-methanesulfonyl-piperazin-1-yl)-phenyl]-ureido}-phenyl)-6-morpholin-4-yl-pyrimidine-4-carboxylic acid ethyl ester]	82	
CCOC(=O)c1nc(-c2ccc(NC(=O)Nc3ccc4[nH]c(=O)oc4c3)cc2)nc(N2CCOCC2)c1OCC [MTR-0423, 5-Ethoxy-6-morpholin-4-yl-2-{4-[3-(2-oxo-2,3-dihydro-benzooxazol-6-yl)-ureido]-phenyl}-pyrimidine-4-carboxylic acid ethyl ester]	95	
CSc1cnc(-c2ccc(NC(=O)Nc3ccc(N4CCN(S(C)(=O)=O)CC4)cc3)cc2)nc1N1CCOCC1 [MTR-0430, 1-[4-(4-Methanesulfonyl-piperazin-1-yl)-phenyl]-3-[4-(5-methylsulfanyl-4-morpholin-4-yl-pyrimidin-2-yl)-phenyl]-urea]	86	
CSc1c(Cl)nc(-c2ccc(NC(=O)Nc3ccc(S(=O)(=O)N4CCOCC4)cc3)cc2)nc1N1CCOCC1 [MTR-0435, 1-[4-(4-Chloro-5-methylsulfanyl-6-morpholin-4-yl-pyrimidin-2-yl)-phenyl]-3-[4-(morpholine-4-sulfonyl)-phenyl]-urea]	90	
CSc1c(-c2cccnc2)nc(-c2ccc(NC(=S)Nc3ccccc3)cc2)nc1N1CCOCC1 [MTR-0440, 1-[4-(5-Methylsulfanyl-4-morpholin-4-yl-6-pyridin-3-yl-pyrimidin-2-yl)-phenyl]-3-phenyl-thiourea]	89	
CSc1cnc(-c2ccc(NC(=O)Nc3ccc4[nH]c(=O)oc4c3)cc2)nc1N1CCOCC1 [MTR-0459, 1-[4-(5-Methylsulfanyl-4-morpholin-4-yl-pyrimidin-2-yl)-phenyl]-3-(2-oxo-2,3-dihydro-benzooxazol-6-yl)-urea]	88	
CSc1c(-c2ccncc2)nc(-c2ccc(NC(=S)Nc3ccccc3)cc2)nc1N1CCOCC1 [MTR-0468, 1-[4-(5-Methylsulfanyl-4-morpholin-4-yl-6-pyridin-4-yl-pyrimidin-2-yl)-phenyl]-3-phenyl-thiourea]	97	
COc1cnc(-c2ccc(NC(=O)Nc3ccc(S(C)(=O)=O)cc3)cc2)nc1N1CCOCC1 [MTR-0470, 1-(4-Methanesulfonyl-phenyl)-3-[4-(5-methoxy-4-morpholin-4-yl-pyrimidin-2-yl)-phenyl]-urea]	88	
COc1cnc(-c2ccc(NC(=O)Nc3ccc(N4CCOCC4=O)cc3)cc2)nc1-c1ccncc1 [MTR-0474, 1-[4-(5-Methoxy-4-pyridin-4-yl-pyrimidin-2-yl)-phenyl]-3-[4-(3-oxo-morpholin-4-yl)-phenyl]-urea]	88	
CSc1c(-c2ccncc2)nc(-c2ccc(NC(=O)NC(C)C)cc2)nc1N1CCOCC1 [MTR-0479, 1-Isopropyl-3-[4-(5-methylsulfanyl-4-morpholin-4-yl-6-pyridin-4-yl-pyrimidin-2-yl)-phenyl]-urea]	95	
COc1cnc(-c2ccc(NC(=O)Nc3ccncc3)cc2)nc1-c1ccncc1 [MTR-0480, 1-[4-(5-Methoxy-4-pyridin-4-yl-pyrimidin-2-yl)-phenyl]-3-pyridin-4-yl-urea]	90	
COc1c(-c2ccc(N)cc2)nc(-c2ccc(N)cc2)nc1N1CCOCC1 [MTR-0483]		88
